# Measured values: patent US7161008B2, “Optically active β-aminoketones, optically active 1,3-amino alcohols and processes for preparing them” (Sanofi - Aventis Deutschland GmbH, priority 2002, dated 2007)
# Assay: Syn/anti-isomerization of the Mannich salt via retro-Mannich/Mannich reaction in DMSO-d6 solution at 300 K, 1H NMR monitoring
# Format: physicochemical
# Settings: for cis-isomer [%] / trans-isomer [%]: DMSO-d6, 300 K, 1H NMR
# Experimental: Electron-withdrawing substituents in the aldehyde component of formula (IV) reduced the retro-Mannich tendency. The 1H NMR monitoring of the syn/anti-isomerization of a syn-Mannich salt of formula (III) via retro-Mannich reaction at 300 K in DMSO-d6 solution can be seen in Example 28.
# Syn/anti-isomerization of the Mannich base mandelate from […] in DMSO-d^6 solution at 300K. Kinetics and equilibrium location of the retro-Mannich/Mannich reactions:
# 8 mg of the product from Example 27 were dissolved in DMSO-d^6 as rapidly as possible in a ^1H NMR tube at room temperature. The sample was immediately introduced into the NMR instrument (400 MHz, 300.0 K), shimmed rapidly and analyzed. The first spectrum was obtained 3.5 min after the sample dissolution. […] Further spectra of the solution were each obtained at an interval of 3–4 min. […] The variation can be seen from the graphics and the table of the appendix. 69 min after dissolution of the Mannich salt, the NMR monitoring was aborted at a syn/anti ratio of 50:50. A repeat measurement 20.5 hours after dissolution of the Mannich salt indicated a syn/anti ratio of 41.5:58.5. After a total of 44.5 hours, this ratio was unchanged. The thermodynamic equilibrium of the two isomers is thus achieved in less than 20 h and the anti-isomer is preferred in solution. In contrast, the four-component coupling (Example 27) results in the crystallization of virtually pure syn-isomer, apparently owing to lower solubility. Even the spectrum obtained 3.5 min after sample dissolution indicates (in addition to the syn- and anti-isomers of the Mannich salt) the presence of the retro-Mannich products 2-pyridylmethyl phenyl ketone (formula VI; singlet at δ is 4.53 ppm) and tolylaldehyde (or corresponding imine) (formula IV or X, singlets at δ is 2.40 and 9.12 ppm) in small but significant amounts. The best fitting curve between the measurement points of the graph was obtained by 3rd order polynomial formation.
# [1] = 3.5 min after sample dissolution
# [2] = 6.5 min after sample dissolution
# [3] = 10.5 min after sample dissolution
# [4] = 13.5 min after sample dissolution
# [5] = 17.5 min after sample dissolution
# [6] = 20.5 min after sample dissolution
# [7] = 24.5 min after sample dissolution
# [8] = 27.5 min after sample dissolution
# [9] = 31.5 min after sample dissolution
# [10] = 34.5 min after sample dissolution
# [11] = 37.5 min after sample dissolution
# [12] = 41.5 min after sample dissolution
# [13] = 44.5 min after sample dissolution
# [14] = 48.5 min after sample dissolution
# [15] = 51.5 min after sample dissolution
# [16] = 55.5 min after sample dissolution
# [17] = 58.5 min after sample dissolution
# [18] = 61.5 min after sample dissolution
# [19] = 65.5 min after sample dissolution
# [20] = 68.5 min after sample dissolution
# [21] = 1230 min after sample dissolution
# [22] = 2670 min after sample dissolution
structure (smiles),measurement,setting,value
Cc1ccc(C(Nc2ccccn2)C(C(=O)c2ccccc2)c2ccccn2)cc1.O=C(O)C(O)c1ccccc1 (stereo not shown) [Example 27],cis-isomer [%],[1],95.1%
same,trans-isomer [%],[1],4.9%
same,cis-isomer [%],[2],92.5%
same,trans-isomer [%],[2],7.5%
same,cis-isomer [%],[3],89.0%
same,trans-isomer [%],[3],11.0%
same,cis-isomer [%],[4],85.0%
same,trans-isomer [%],[4],15.0%
same,cis-isomer [%],[5],81.7%
same,trans-isomer [%],[5],18.3%
same,cis-isomer [%],[6],77.3%
same,trans-isomer [%],[6],22.7%
same,cis-isomer [%],[7],76.8%
same,trans-isomer [%],[7],23.2%
same,cis-isomer [%],[8],71.8%
same,trans-isomer [%],[8],28.2%
same,cis-isomer [%],[9],68.0%
same,trans-isomer [%],[9],32.0%
same,cis-isomer [%],[10],66.2%
same,trans-isomer [%],[10],33.8%
same,cis-isomer [%],[11],63.8%
same,trans-isomer [%],[11],36.2%
same,cis-isomer [%],[12],61.7%
same,trans-isomer [%],[12],38.3%
same,cis-isomer [%],[13],60.1%
same,trans-isomer [%],[13],39.9%
same,cis-isomer [%],[14],58.7%
same,trans-isomer [%],[14],41.3%
same,cis-isomer [%],[15],56.8%
same,trans-isomer [%],[15],43.2%
same,cis-isomer [%],[16],54.5%
same,trans-isomer [%],[16],45.5%
same,cis-isomer [%],[17],53.6%
same,trans-isomer [%],[17],46.4%
same,cis-isomer [%],[18],52.9%
same,trans-isomer [%],[18],47.1%
same,cis-isomer [%],[19],52.0%
same,trans-isomer [%],[19],48.0%
same,cis-isomer [%],[20],50.5%
same,trans-isomer [%],[20],49.5%
same,cis-isomer [%],[21],41.5%
same,trans-isomer [%],[21],58.5%
same,cis-isomer [%],[22],41.6%
same,trans-isomer [%],[22],58.4%
same,"syn/anti ratio of the Mannich salt in solution, compared with 20.5 hours","DMSO-d6, 300.0 K, after a total of 44.5 hours",unchanged
same,time to thermodynamic equilibrium of syn- and anti-isomers,"DMSO-d6 solution, 300 K",less than 20 h
